Source: US4349551A, “Penicillin derivatives and compositions containing them” (Beecham Group Limited, priority 1980, dated 1982)
≈ marks a conversion by molar mass, not a printed value. Where two headings read alike, the source gives them in different places.

Key:
S. aureus Russell = experiment: MIC against S. aureus Russell; assay type: cell-based; conditions: Staphylococcus aureus, Agar
Description: (§1) | MIC values (μg/ml) of the compounds of | Examples 1 and 2 against a number of | organisms important in human infections | Organism Agar Broth Agar Broth Agar

S. marcescens US 32 = experiment: MIC against S. marcescens US 32; assay type: cell-based; conditions: Serratia marcescens, US32, Agar
Description: as §1

K. aerogenes A = experiment: MIC against K. aerogenes A; assay type: cell-based; conditions: Klebsiella aerogenes
Description: as §1

P. rettgeri = experiment: MIC against P. rettgeri; assay type: cell-based; conditions: Providencia rettgeri, Agar
Description: as §1

P. mirabilis C 977 = experiment: MIC against P. mirabilis C 977; assay type: cell-based; conditions: Proteus mirabilis, C977, Agar
Description: as §1

E. coli NCTC 10413 = experiment: MIC against E. coli NCTC 10413; assay type: cell-based; conditions: Escherichia coli
Description: as §1

E. coli JT 4 = experiment: MIC against E. coli JT 4; assay type: cell-based; conditions: Escherichia coli, JT4, Agar
Description: as §1

S. pyogenes ON 10 = experiment: MIC against S. pyogenes ON 10; assay type: cell-based; conditions: Streptococcus pyogenes, ON10, Agar
Description: as §1

P. mirabilis 889 = experiment: MIC against P. mirabilis 889; assay type: cell-based; conditions: Proteus mirabilis, Agar
Description: as §1

P. morganii = experiment: MIC against P. morganii; assay type: cell-based; conditions: Morganella morganii, Agar
Description: as §1

E. cloacae N1 = experiment: MIC against E. cloacae N1; assay type: cell-based; conditions: Enterobacter cloacae, Agar
Description: as §1

E. coli JT 425 = experiment: MIC against E. coli JT 425; assay type: cell-based; conditions: Escherichia coli, JT425, Agar
Description: as §1

S. faecalis I = experiment: MIC against S. faecalis I; assay type: cell-based; conditions: Enterococcus faecalis, Agar
Description: as §1

S. aureus Oxford = experiment: MIC against S. aureus Oxford; assay type: cell-based; conditions: Staphylococcus aureus, Agar
Description: as §1

[1] = test system: Ps. aeruginosa NCTC 10662; experiment: MIC against Ps. aeruginosa NCTC 10662; assay type: cell-based; conditions: Agar
Description: as §1

B. subtilis = experiment: MIC against B. subtilis; assay type: cell-based; conditions: Bacillus subtilis, Agar
Description: as §1

[2] = reconversion of the formyl ester to the parent 6-hydroxymethyl penicillin; assay type: physicochemical
Description: The benzyl ester from the previous example (101 mg, 0.15 mmol) in THF (5 ml) was added to prehydrogenated 10% palladium on charcoal (100 mg) in THF (5 ml), water (1 ml). After shaking with hydrogen for 0.5 hours, the catalyst was filtered from the solution and washed well with N sodium bicarbonate solution (40 ml). The filtrate was washed with ethyl acetate (2×40 ml), acidified to pH 1.5 with 1 N-hydrochloric acid and extracted with ethyl acetate (3×40 ml). The combined extracts were washed with brine, dried and evaporated to give the title compound (46 mg, 51%), δ [(CD3)2 CO] 1.12, 1.35 (6H, 2s, 2 x CH3) 1.20 (3H, t, NCH2 CH3), 3.3-3.8 (4H, m, NCH2 and piperazine CH2), 3.8-4.3 (4H, m, CH2 O and piperazine CH2), 4.70 (1H, s, C3-proton), 5.57 (1H, s, C5 -proton), 5.72 (1H, d, J 6 Hz, α-proton) 7.45 (5H, m, aromatic protons), 8.25 (1H, s, CHO), 8.48 ( 1H, s, NH), 10.08 (1H, d, J 6 Hz, NH).

N. catarrhalis 1502 = experiment: MIC against N. catarrhalis 1502; assay type: cell-based; conditions: Agar
Description: as §1

Ps. aeruginosa Dalgleish = experiment: MIC against Ps. aeruginosa Dalgleish; assay type: cell-based; conditions: Pseudomonas aeruginosa; Agar; Ps. aeruginosa Dalgleish 10^-2
Description: as §1

[3] = Ps. aeruginosa NCTC 10662 10^-2
[4] = Pseudomonas aeruginosa, NCTC10662, Ps. aeruginosa NCTC 10662, read-out: MIC

SMILES | MIC (S. aureus Russell) [µg/mL] | MIC (S. marcescens US 32) [µg/mL] | MIC (K. aerogenes A; Agar) [µg/mL] | MIC (P. rettgeri) [µg/mL] | MIC (P. mirabilis C 977) [µg/mL] | MIC (E. coli NCTC 10413; NCTC10413, Agar) [µg/mL] | MIC (E. coli JT 4) [µg/mL] | MIC (S. pyogenes ON 10) [µg/mL] | MIC (P. mirabilis 889) [µg/mL] | MIC (P. morganii) [µg/mL] | MIC (E. cloacae N1) [µg/mL] | MIC (E. coli JT 425) [µg/mL] | MIC (S. faecalis I) [µg/mL] | MIC (S. aureus Oxford) [µg/mL] | MIC [1, 3] [µg/mL] | MIC [1, 4] [µg/mL] | MIC (B. subtilis) [µg/mL] | MIC (K. aerogenes A; Broth) [µg/mL] | MIC (E. coli NCTC 10413; NCTC10413, Broth) [µg/mL] | MIC (N. catarrhalis 1502) [µg/mL] | further results
CCN1CCN(C(=O)NC(C(=O)N[C@]2(CO)C(=O)N3[C@@H](C(=O)O)C(C)(C)S[C@@H]32)c2csc(N)n2)C(=O)C1=O (mixture of isomers) [Example 3, 6,α-Hydroxymethyl-6,β-[DL-α'-(4-ethyl-2,3-dioxopiperazine-1-carbonylamino)2-aminothiazole-4-acetamido]penicillanic acid] | > 100 | 50 | 1 | 25 | 10 | 10 | > 100 | > 100 | 10 | 10 | 25 | 100 | 100 | > 100 | > 100 | > 100 | > 100 |  |  |  | 
CCN1CCN(C(=O)N[C@@H](C(=O)N[C@]2(COC=O)C(=O)N3[C@@H](C(=O)O)C(C)(C)S[C@@H]32)c2ccccc2)C(=O)C1=O [Example 4, 6,α-Formyloxymethyl-6,β-[D,α'-(4-ethyl-2,3-dioxopiperazine-1-carbonylamino)-phenylacetamido]penicillanic acid] |  |  |  |  |  |  |  |  |  |  |  |  |  |  |  |  |  |  |  |  | reconversion to the 6-hydroxymethyl compound ([2]; in the solvents used for h.p.l.c.): complete and instantaneous; parent 6-hydroxymethyl penicillin formed on preparation of the sodium salt ([2]; precipitation from acetone using 2 N sodium ethyl hexanoate in methyl isobutyl ketone): an appreciable amount
CCN1CCN(C(=O)N[C@@H](C(=O)N[C@]2(CO)C(=O)N3[C@@H](C(=O)O)C(C)(C)S[C@@H]32)c2ccc(O)cc2)C(=O)C1=O [Example 2, 6,α-Hydroxymethyl-6,β-[D,α'-(4-ethyl-2,3-dioxopiperazine-1-carbonylamino)-p-hydroxyphenylacetamido]penicillanic acid] | > 100 | 5 (≈ 8.87 µM) | 2.5 (≈ 4.44 µM) | 5 (≈ 8.87 µM) | 2.5 (≈ 4.44 µM) | 5 (≈ 8.87 µM) | 100 (≈ 177 µM) | 2.5 (≈ 4.44 µM) | 2.5 (≈ 4.44 µM) | 5 (≈ 8.87 µM) | 5 (≈ 8.87 µM) | 50 (≈ 88.7 µM) | > 100 | > 100 | > 100 | > 100 | > 100 | 1 (≈ 1.77 µM) | 5 (≈ 8.87 µM) | 1 (≈ 1.77 µM) | MIC (Ps. aeruginosa Dalgleish): > 100 µg/mL
CCN1CCN(C(=O)N[C@@H](C(=O)N[C@]2(CO)C(=O)N3[C@@H](C(=O)O)C(C)(C)S[C@@H]32)c2ccccc2)C(=O)C1=O [Example 1, 6,α-Hydroxymethyl-6,β-[D,α'-(4-ethyl-2,3-dioxopiperazine-1-carbonylamino)-phenylacetamido]penicillanic acid] | > 100 | 50 (≈ 91.3 µM) | 5 (≈ 9.13 µM) | 50 (≈ 91.3 µM) | 10 (≈ 18.3 µM) | 25 (≈ 45.7 µM) | 100 (≈ 183 µM) | 25 (≈ 45.7 µM) | 5 (≈ 9.13 µM) | 25 (≈ 45.7 µM) | 25 (≈ 45.7 µM) | 50 (≈ 91.3 µM) | > 100 | > 100 | > 100 | > 100 | > 100 | 100 (≈ 183 µM) | 10 (≈ 18.3 µM) | 1 (≈ 1.83 µM) | MIC (Ps. aeruginosa Dalgleish): > 100 µg/mL
